Tests used:
[1] = target: T1, NPY Y5 receptor (Homo sapiens, UniProt Q15761); assay: Radioligand (125I-PYY) binding to membrane suspensions, cloned human NPY Y5 receptor; set-up: expressed in transfected cells; host or cells: LM(tk-) cells (typically); settings: 125I-PYY competition, membranes of transfected LM(tk-) cells; read-out: Ki, binding affinity of selected compounds
T1 sequence (Q15761 1-445): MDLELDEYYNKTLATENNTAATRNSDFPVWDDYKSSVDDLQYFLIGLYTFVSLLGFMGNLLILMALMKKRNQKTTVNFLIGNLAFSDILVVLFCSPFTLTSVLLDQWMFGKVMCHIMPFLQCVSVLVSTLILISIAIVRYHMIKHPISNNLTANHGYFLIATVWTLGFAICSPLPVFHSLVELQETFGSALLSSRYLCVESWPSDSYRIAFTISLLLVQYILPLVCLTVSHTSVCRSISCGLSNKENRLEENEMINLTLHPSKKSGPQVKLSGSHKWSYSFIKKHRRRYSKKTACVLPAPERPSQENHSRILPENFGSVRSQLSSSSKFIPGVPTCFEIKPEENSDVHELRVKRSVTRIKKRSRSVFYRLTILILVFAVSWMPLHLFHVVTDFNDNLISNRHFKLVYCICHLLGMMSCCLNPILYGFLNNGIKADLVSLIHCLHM
Experimental: (§1) The pharmacological properties of the compounds of the present invention were evaluated at the cloned human NPY Y5 receptor using the protocols disclosed in U.S. Pat. No. 6,124,331, the contents of which are hereby incorporated by reference. The procedures for cell culture, transient transfection and membrane harvest, which are well known in the art, are described therein
Briefly, membrane suspensions from transfected cells (typically expressed in LM(tk-) cells) and ^125I-PYY radioligand (PerkinElmer, Waltham, Mass.) were diluted in binding buffer supplemented with 0.1% bovine serum albumin to yield an optimal membrane protein concentration so that ^125I-PYY bound by membranes in the assay was less than 10% of ^125I-PYY delivered to the sample (100,000 dpm/sample=0.08 nM for competition binding assays). Test compounds were diluted to desired concentrations with supplemented binding buffer in the presence of 30% DMSO. The binding assay was performed in 96-well polypropylene microtiter plates by mixing 125I-PYY test compound (25 μL), and finally, membrane suspensions (200 μL). Final DMSO=3%. Samples were incubated in at room temperature for about 120 min. Incubations were terminated by filtration over Whatman GF/C filters (pre-coated with 1% polyethyleneimine and air-dried before use), followed by washing with ice-cold binding buffer. Filter-trapped membranes were impregnated with MeltiLex solid scintillant (Wallac, Turku, Finland) and counted for ^125I-PYY in a Wallac MicroBeta Trilux. Non-specific binding was defined by 1000 nM porcine NPY. Specific binding was typically 80%; most non-specific binding was associated with the filter. Binding data were analyzed using nonlinear regression and statistical techniques available in the GraphPAD Prism package (San Diego, Calif.).

[2] = target: T1, NPY Y5 receptor; assay: NPY Y5-dependent inhibition of forskolin-stimulated cAMP accumulation; assay type: cell-based; set-up: expressed in transfected cells; settings: stably transfected cells, NPY then forskolin 10 uM, cAMP by HTRF
Experimental: as §1
Stably transfected cells were seeded into 96-well microtiter plates and cultured until confluent. To reduce the potential for receptor desensitization, the serum component of the media was reduced to 1.5% for 4 to 16 hours before the assay. Cells were washed in Hank's buffered saline, or HBS (150 mM NaCl, 20 mM HEPES, 1 mM CaCl2, 5 mM KCl, 1 mM MgCl2, and 10 mM glucose) supplemented with 0.1% bovine serum albumin plus 100 uM IBMX. […] The assay was then terminated and intracellular cAMP was quantified by with highthroughput time-resolved flourometry (HTRF kit from CisBio, Bedford, Mass.). The effect of the test compound on agonist (NPY) activity were analyzed using nonlinear regression and statistical techniques available in the GraphPAD Prism package (San Diego, Calif.). The compounds of Example 2a and 5b were determined to function as an antagonist at the NPY Y5 receptor.

[3] = test system: Flinders Sensitive Line rats; settings: chronic dosing 10 mg/kg/day, i.p.; cited from earlier work
[4] = test system: Sprague Dawley rats; settings: 3-30 mg/kg, p.o., acute or chronic treatment; cited from earlier work
[5] = test system: Flinders Sensitive Line rats; settings: chronic dosing 10 mg/kg/day, i.p.; cited from earlier work; remark: listed apart in the source
[6] = target: T2, Y5 receptor (Rattus norvegicus, UniProt Q63634); settings: increase elicited by i.c.v. injection of cPP(1-7), NPY(19-23),Ala31,Aib32, Gln34]; cited from earlier work
T2 construct: host or cells: animals in vivo (i.c.v. injection of Y5 agonist)
T2 sequence (Q63634 1-445): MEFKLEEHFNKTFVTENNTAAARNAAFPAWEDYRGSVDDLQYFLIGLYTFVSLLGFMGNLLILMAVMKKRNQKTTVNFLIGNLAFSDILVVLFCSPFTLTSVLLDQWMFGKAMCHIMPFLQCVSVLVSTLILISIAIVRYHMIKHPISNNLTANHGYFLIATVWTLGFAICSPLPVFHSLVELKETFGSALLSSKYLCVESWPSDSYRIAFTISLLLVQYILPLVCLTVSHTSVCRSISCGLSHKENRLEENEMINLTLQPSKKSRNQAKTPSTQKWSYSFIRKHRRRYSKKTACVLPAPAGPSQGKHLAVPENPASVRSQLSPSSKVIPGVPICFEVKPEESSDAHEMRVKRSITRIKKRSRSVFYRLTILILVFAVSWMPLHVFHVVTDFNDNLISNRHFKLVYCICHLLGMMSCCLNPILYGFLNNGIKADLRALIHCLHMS

[7] = test system: Wistar rats; settings: Wistar rats exposed to chronic mild stress, chronic dosing 3, 10 mg/kg/day, i.p.; cited from earlier work

O=C1NCCCN1[C@H]1CC[C@@H](C(=O)Nc2ccc(-c3cc(F)cc(F)c3)cn2)CC1 [Example 4a, cis-4-(2-Oxo-tetrahydro-pyrimidin-1-yl)-cyclohexanecarboxylic acid [5-(3,5-difluoro-phenyl)-pyridin-2-yl]-amide]
Ki [1]: 9 nM

O=C1COCCN1[C@H]1CC[C@@H](C(=O)Nc2ccc(-c3cc(F)cc(F)c3)cn2)CC1 [Example 6a, cis-4-(3-Oxo-morpholin-4-yl)-cyclohexanecarboxylic acid [5-(3,5-difluoro-phenyl)-pyridin-2-yl]-amide]
Ki [1]: 8 nM

O=C1CCCN1[C@H]1CC[C@H](C(=O)Nc2ccc(-c3cc(F)cc(F)c3)cn2)CC1 [Example 1a, trans-4-(2-Oxo-pyrrolidin-1-yl)-cyclohexanecarboxylic acid [5-(3,5-difluoro-phenyl)-pyridin-2-yl]-amide]
Ki [1]: 720 nM

CN1CCCN([C@H]2CC[C@@H](C(=O)Nc3ccc(-c4cc(F)cc(F)c4)cn3)CC2)C1=O [Example 5a, cis-4-(3-Methyl-2-oxotetrahydro-pyrimidin-1-yl)-cyclohexanecarboxylic acid [5-(3,5-difluoro-phenyl)-pyridin-2-yl]-amide]
Ki [1]: 12 nM

CN1CCN([C@H]2CC[C@@H](C(=O)Nc3ccc(-c4cc(F)cc(F)c4)cn3)CC2)C1=O [Example 5b, cis-4-(3-Methyl-2-oxo-imidazolidin-1-yl)-cyclohexanecarboxylic acid [5-(3,5-difluoro-phenyl)-pridin-2-yl]-amide]
function at the NPY Y5 receptor (effect on NPY agonist activity) [2]: antagonist
Ki [1]: 3.8 nM

CS(=O)(=O)NCC1CCC(Nc2nc3c(s2)CCSc2ccccc2-3)CC1 (stereo not drawn) [Lu AA33810]
effect in forced swim test [3]: antidepressant-like effects
effect in social interaction test [4]: anxiolytic-like effects
effect in social interaction test [5]: anxiolytic-like effects
effect on increase in plasma ACTH [6]: attenuated increases
effect on increase in plasma cortisol [6]: attenuated increases
effect on stress-induced decrease in sucrose consumption [7]: antidepressant-like activity

O=C1OCCN1[C@H]1CC[C@@H](C(=O)Nc2ccc(-c3cc(F)cc(F)c3)cn2)CC1 [Example 2a, cis-4-(2-Oxo-oxazolidin-3-yl)-cyclohexanecarboxylic acid [5-(3,5-difluoro-phenyl)-pyridin-2-yl]-amide]
function at the NPY Y5 receptor (effect on NPY agonist activity) [2]: antagonist
Ki [1]: 8 nM

O=C1OCCCN1[C@H]1CC[C@@H](C(=O)Nc2ccc(-c3cc(F)cc(F)c3)cn2)CC1 [Example 3a, cis-4-(2-Oxo-perhydro-1,3-oxazin-3-yl)-cyclohexanecarboxylic acid [5-(3,5-difluoro-phenyl)-pyridin-2-yl]-amide]
Ki [1]: 6 nM

Reference: patent US20120101078A1, “AMIDE DERIVATIVES AS NEUROPEPTIDE Y5 RECEPTOR LIGANDS” (H. Lundbrck A/S, priority 2009, published 2012)
